Biological target: T1, Androgen Receptor (AR) (Homo sapiens, UniProt P10275)
T1 construct: endogenous in cells; host or cells: VCaP
T1 sequence (P10275 1-920): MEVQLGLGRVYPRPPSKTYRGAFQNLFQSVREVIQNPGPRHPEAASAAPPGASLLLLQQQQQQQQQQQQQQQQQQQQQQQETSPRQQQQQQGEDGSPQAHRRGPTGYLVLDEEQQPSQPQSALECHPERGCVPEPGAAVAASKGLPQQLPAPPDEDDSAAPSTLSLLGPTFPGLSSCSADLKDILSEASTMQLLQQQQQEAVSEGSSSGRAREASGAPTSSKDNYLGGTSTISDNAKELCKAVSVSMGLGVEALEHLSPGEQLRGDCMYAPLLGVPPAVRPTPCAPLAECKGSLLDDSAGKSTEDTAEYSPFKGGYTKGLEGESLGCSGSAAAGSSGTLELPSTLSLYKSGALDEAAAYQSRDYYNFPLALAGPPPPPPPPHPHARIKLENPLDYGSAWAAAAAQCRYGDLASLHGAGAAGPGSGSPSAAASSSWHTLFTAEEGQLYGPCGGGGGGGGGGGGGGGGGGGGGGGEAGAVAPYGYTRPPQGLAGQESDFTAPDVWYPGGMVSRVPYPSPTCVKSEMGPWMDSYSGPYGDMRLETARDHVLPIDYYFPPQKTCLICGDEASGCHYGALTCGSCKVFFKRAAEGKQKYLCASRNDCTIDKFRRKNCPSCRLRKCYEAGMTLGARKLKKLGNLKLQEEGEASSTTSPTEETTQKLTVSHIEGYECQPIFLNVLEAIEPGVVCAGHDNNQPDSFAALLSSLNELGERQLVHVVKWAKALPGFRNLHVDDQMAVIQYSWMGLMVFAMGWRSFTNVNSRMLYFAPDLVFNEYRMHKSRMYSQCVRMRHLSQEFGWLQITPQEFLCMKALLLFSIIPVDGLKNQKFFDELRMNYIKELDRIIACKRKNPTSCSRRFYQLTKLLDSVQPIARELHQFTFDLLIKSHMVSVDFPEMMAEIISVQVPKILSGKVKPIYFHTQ
Assay: AR immunofluorescence staining, high content imager, VCaP cells
Format: cell-based
Conditions: for DC50: AR degradation by immunofluorescence; for Dmax: maximal AR degradation
Method in brief: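 VCaP cells treated with compound, fixed in 4% PFA (8% 2× solution added directly for low-adherence lines), permeabilised with 0.1% Triton X-100 and blocked. Stained overnight at 4° C with anti-AR antibody, then FITC anti-rabbit secondary plus phalloidin and DAPI/Hoechst. Read by high-content imaging.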

Row | SMILES | DC50 [nM] | Dmax [%]
1 | COc1cc(O[C@H]2C(C)(C)[C@H](NC(=O)c3ccc(N4CCO[C@@H](CN5CCN(c6ccc(C(=O)NC7CCC(=O)NC7=O)c(OC)c6)CC5)C4)cc3)C2(C)C)ccc1C#N (stereo partly drawn) [Compound 58, N-(2,6-dioxopiperidin-3-yl)-2-methoxy-4-(4-{[(2S)-4-(4-{[(1r,3r)-3-(4-cyano-3-methoxyphenoxy)-2,2,4,4-tetramethylcyclobutyl]carbamoyl}phenyl)morpholin-2-yl]methyl}piperazin-1-yl)benzamide] | < 1 | ≥ 70
2 | COc1cc(N2CCN(C[C@H]3CN(c4ccc(C(=O)N[C@H]5C(C)(C)[C@H](Oc6cc(C)c(C#N)c(C)c6)C5(C)C)cc4)CCO3)CC2)ccc1C(=O)NC1CCC(=O)NC1=O (stereo partly drawn) [Compound 59, N-(2,6-dioxopiperidin-3-yl)-2-methoxy-4-(4-{[(2S)-4-(4-{[(1r,3r)-3-(4-cyano-3,5-dimethylphenoxy)-2,2,4,4-tetramethylcyclobutyl]carbamoyl}phenyl)morpholin-2-yl]methyl}piperazin-1-yl)benzamide] | < 1 | ≥ 70
3 | COc1cc(O[C@H]2C(C)(C)[C@H](NC(=O)c3ccc(N4CCC(CN5CCN(c6ccc(C(=O)NC7CCC(=O)NC7=O)cc6OC)CC5)CC4)cc3)C2(C)C)ccc1C#N (stereo partly drawn) [Compound 60, N-(2,6-dioxopiperidin-3-yl)-3-methoxy-4-(4-{[1-(4-{[(1r,3r)-3-(4-cyano-3-methoxyphenoxy)-2,2,4,4-tetramethylcyclobutyl]carbamoyl}phenyl)piperidin-4-yl]methyl}piperazin-1-yl)benzamide] | < 1 | ≥ 70
4 | Cc1cc(O[C@H]2C(C)(C)[C@H](NC(=O)c3ccc(N4CCOC(CN(C(C)C)[C@H]5C[C@@H](Oc6ccc(F)c(C(=O)N[C@H]7CCC(=O)NC7=O)c6)C5)C4)cc3)C2(C)C)cc(C)c1C#N (stereo partly drawn) [Compound 61, 4-(2-{[(propan-2-yl)[(1r,3r)-3-(3-{[(3S)-2,6-dioxopiperidin-3-yl]carbamoyl}-4-fluorophenoxy)cyclobutyl]amino]methyl}morpholin-4-yl)-N-[(1r,3r)-3-(4-cyano-3,5-dimethylphenoxy)-2,2,4,4-tetramethylcyclobutyl]benzamide] | < 1 | 50 to 70
5 | COc1cc(O[C@H]2C(C)(C)[C@H](NC(=O)c3ccc(N4CCOC(CN(C(C)C)[C@H]5C[C@@H](Oc6ccc(F)c(C(=O)N[C@H]7CCC(=O)NC7=O)c6)C5)C4)cc3)C2(C)C)ccc1C#N (stereo partly drawn) [Compound 62, 4-(2-{[(propan-2-yl)[(1r,3r)-3-(3-{[(3S)-2,6-dioxopiperidin-3-yl]carbamoyl}-4-fluorophenoxy)cyclobutyl]amino]methyl}morpholin-4-yl)-N-[(1r,3r)-3-(4-cyano-3-methoxyphenoxy)-2,2,4,4-tetramethylcyclobutyl]benzamide] | < 1 | 50 to 70
6 | Cc1cc(O[C@H]2C(C)(C)[C@H](NC(=O)c3ccc(N4CC5(C4)CN([C@H]4C[C@H](Oc6ccc(C(=O)N[C@H]7CCC(=O)NC7=O)c(F)c6)C4)CCO5)cc3)C2(C)C)cc(C)c1C#N [Compound 63, N-[(1r,3r)-3-(4-cyano-3,5-dimethylphenoxy)-2,2,4,4-tetramethylcyclobutyl]-4-{8-[(1r,3r)-3-(4-{[(3S)-2,6-dioxopiperidin-3-yl]carbamoyl}-3-fluorophenoxy)cyclobutyl]-5-oxa-2,8-diazaspiro[3.5]nonan-2-yl}benzamide] | < 1 | 50 to 70
7 | Cc1cc(O[C@H]2C(C)(C)[C@H](NC(=O)c3ccc(N4CCC(CN5CCOCCCCOc6cc(C(=O)NC7CCC(=O)NC7=O)ccc6O[C@H]6C[C@H]5C6)CC4)cc3)C2(C)C)cc(C)c1C#N (stereo partly drawn) [Compound 64, (1r,18r)-N-(2,6-dioxopiperidin-3-yl)-17-{[1-(4-{[(1r,3r)-3-(4-cyano-3,5-dimethylphenoxy)-2,2,4,4-tetramethylcyclobutyl]carbamoyl}phenyl)piperidin-4-yl]methyl}-2,9,14-trioxa-17-azatricyclo[16.1.1.0^3,8]icosa-3(8),4,6-triene-6-carboxamide] | < 1 | 50 to 70
8 | Cc1cc(O[C@H]2C(C)(C)[C@H](NC(=O)c3ccc(N4CCO[C@@H](CN(C(C)C)[C@H]5C[C@H](Oc6ccc(C(=O)N[C@H]7CCC(=O)NC7=O)c(F)c6)C5)C4)cc3)C2(C)C)cc(C)c1C#N [Compound 65, 4-[(2S)-2-{[(propan-2-yl)[(1r,3r)-3-(4-{[(3S)-2,6-2,2,4,4-dioxopiperidin-3-yl]carbamoyl}-3-fluorophenoxy)cyclobutyl]amino]methyl}morpholin-4-yl]-N-[(1r,3r)-3-(4-cyano-3,5-dimethylphenoxy)-2,2,4,4-tetramethylcyclobutyl]benzamide] | < 1 | 50 to 70
9 | COc1cc(C(=O)NC2CCC(=O)NC2=O)ccc1O[C@H]1C[C@H](N(CC2CCN(c3ccc(C(=O)N[C@H]4C(C)(C)[C@H](Oc5cc(C)c(C#N)c(C)c5)C4(C)C)cc3)CC2)C(C)C)C1 (stereo partly drawn) [Compound 66, N-(2,6-dioxopiperidin-3-yl)-3-methoxy-4-[(1r,3r)-3-[(propan-2-yl)({[1-(4-{[(1r,3r)-3-(4-cyano-3,5-dimethylphenoxy)-2,2,4,4-tetramethylcyclobutyl]carbamoyl}phenyl)piperidin-4-yl]methyl})amino]cyclobutoxy]benzamide] | < 1 | 50 to 70
10 | COCCN(C[C@H]1CN(c2ccc(C(=O)N[C@H]3C(C)(C)[C@H](Oc4cc(C)c(C#N)c(C)c4)C3(C)C)cc2)CCO1)[C@H]1C[C@H](Oc2ccc(C(=O)N[C@H]3CCC(=O)NC3=O)c(F)c2)C1 [Compound 67, 4-[(2S)-2-{[(2-methoxyethyl)[(1r,3r)-3-(4-{[(3S)-2,6-dioxopiperidin-3-yl]carbamoyl}-3-fluorophenoxy)cyclobutyl]amino]methyl}morpholin-4-yl]-N-[(1r,3r)-3-(4-cyano-3,5-dimethylphenoxy)-2,2,4,4-tetramethylcyclobutyl]benzamide] | 1 to 10 | ≥ 70
11 | Cc1cc(O[C@H]2C(C)(C)[C@H](NC(=O)c3ccc(N4CCC5(CC4)CN([C@H]4C[C@H](Oc6ccc(C(=O)NC7CCC(=O)NC7=O)cc6)C4)CCO5)cc3)C2(C)C)cc(C)c1C#N (stereo partly drawn) [Compound 68, N-[(1r,3r)-3-(4-cyano-3,5-dimethylphenoxy)-2,2,4,4-tetramethylcyclobutyl]-4-{4-[(1r,3r)-3-{4-[(2,6-dioxopiperidin-3-yl)carbamoyl]phenoxy}cyclobutyl]-1-oxa-4,9-diazaspiro[5.5]undecan-9-yl}benzamide] | 1 to 10 | 50 to 70
12 | COc1cc(O[C@H]2C(C)(C)[C@H](NC(=O)c3ccc(N4CCC(CN5CCN(c6ccc(F)c(C(=O)N[C@H]7CCC(=O)NC7=O)c6)CC5)CC4)cc3)C2(C)C)ccc1C#N [Compound 69, N-[(3S)-2,6-dioxopiperidin-3-yl]-2-fluoro-5-(4-{[1-(4-{[(1r,3r)-3-(4-cyano-3-methoxyphenoxy)-2,2,4,4-tetramethylcyclobutyl]carbamoyl}phenyl)piperidin-4-yl]methyl}piperazin-1-yl)benzamide] | 10 to 100 | ≥ 70
13 | Cc1cc(O[C@H]2C(C)(C)[C@H](NC(=O)c3ccc(N4CC(CN5CC(c6ccc(C(=O)N[C@H]7CCC(=O)NC7=O)c(F)c6)C5)C4)cc3)C2(C)C)cc(C)c1C#N [Compound 71, N-[(3S)-2,6-dioxopiperidin-3-yl]-2-fluoro-4-(1-{[1-(4-{[(1r,3r)-3-(4-cyano-3,5-dimethylphenoxy)-2,2,4,4-tetramethylcyclobutyl]carbamoyl}phenyl)azetidin-3-yl]methyl}azetidin-3-yl)benzamide] | < 1 | 50 to 70
14 | Cc1cc(O[C@H]2C(C)(C)[C@H](NC(=O)c3ccc(N4CCC(CN5CCOCCCCCOc6ccc(C(=O)NC7CCC(=O)NC7=O)cc6O[C@H]6C[C@H]5C6)CC4)cc3)C2(C)C)cc(C)c1C#N (stereo partly drawn) [Compound 72, (1r,19r)-N-(2,6-dioxopiperidin-3-yl)-18-{[1-(4-{[(1r,3r)-3-(4-cyano-3,5-dimethylphenoxy)-2,2,4,4-tetramethylcyclobutyl]carbamoyl}phenyl)piperidin-4-yl]methyl}-2,9,15-trioxa-18-azatricyclo[17.1.1.0^3,8]henicosa-3(8),4,6-triene-5-carboxamide] | 1 to 10 | < 50
15 | Cc1cc(O[C@H]2C(C)(C)[C@H](NC(=O)c3ccc(N4CCC(O[C@H]5C[C@H](Oc6ccc(C(=O)N[C@H]7CCC(=O)NC7=O)c(F)c6)C5)CC4)cc3)C2(C)C)cc(C)c1C#N [Compound 73, N-[(1r,3r)-3-(4-cyano-3,5-dimethylphenoxy)-2,2,4,4-tetramethylcyclobutyl]-4-{4-[(1r,3r)-3-(4-{[(3S)-2,6-dioxopiperidin-3-yl]carbamoyl}-3-fluorophenoxy)cyclobutoxy]piperidin-1-yl}benzamide] | 1 to 10 | < 50

Reference: patent US12427144B2, “Compounds and methods for the targeted degradation of androgen receptor” (Arvinas Operations, Inc., priority 2019, dated 2025)
